Reference: article PMC11853379, “Glioblastoma Cell Migration, Invasion and Vasculogenic Mimicry Downmodulated by Novel uPAcyclin Derivatives” (Cells, 2025)
Positions of bridges follow the written chain, without caps; N, C: chain ends. Residues, ends and D or L forms follow the SMILES beside them.

Tests used:
GBM = conditions: surgical resection, radiotherapy and concomitant Temozolomide; extended from 12.1 months; cited from earlier work
Description: Glioblastoma (GBM) is the most common malignant primary brain tumor, characterized by micro-vascular proliferation, cellular necrosis and the pronounced invasiveness of surrounding parenchima with high recurrency and a high mortality rate. […] In particular, surgery still represents an important pillar of treat ...

[1] = target: T1, integrin αV receptors on the GBM cell surface (U87-MG cells) (Homo sapiens, UniProt P06756); experiment: Receptor binding assay: displacement of FITC-uPAcyclin from U87-MG living cells; conditions: for increase of binding affinity compared to uPAcyclin / binding affinity compared to uPAcyclin (in words): U87-MG cells; for binding affinity compared to uPAcyclin (in words): displacement of FITC-uPAcyclin
T1 construct: endogenous in cells; host or cells: U87-MG human glioblastoma cells (living, acid-treated, 4 °C)
Method: The U87-MG and U251-MG cell lines were harvested and acid-treated, as described. Briefly, 2 × 10^6 cells/sample were pre-incubated for 30 min at 4 °C with uPAcyclin and Ala peptides and subsequently exposed to 50 nM FITC-uPAcyclin for 2 h at 4 °C, as described. The experiments were performed three times, with duplicate samples, and analyzed as reported in the statistical analysis.
This assay confirmed that FITC-uPAcyclin binds specifically to both GBM cell lines and to the HEK-293/αV, whereas little interaction is detected with HEK-293 cells (Supporting Information, Table S7). […] To investigate the ability of novel Ala-scan peptides to compete with uPAcyclin for binding to integrin αV receptors on the GBM cell surface, the specific interaction of FITC-conjugated uPAcyclin with U87-MG living cells was tested via a receptor binding assay. U87-MG GBM cells were pre-incubated with increasing concentrations of unlabeled Ala peptides and then exposed to FITC-uPAcyclin (Figure 1A). […] When considering the relative Kdapp of uPAcyclin variants, it can be inferred that the replacement either of each of the three prolines (Pro^2, Pro^5, Pro^6) or Lys^1 increases the binding affinity of the resulting peptide compared to uPAcyclin. In contrast, the Ala mutation of other residues is detrimental to the peptide binding affinity.
(§1) Figure 1 Binding of Ala peptides to U87-MG cells and effect of uPAcyclin and Ala peptides on U87-MG cellular migration. (A) A total of 2 × 10^6 U87-MG cells were pre-incubated for 30 min at 4 °C with increasing concentrations of unlabeled uPAcyclin and Ala peptides and then exposed to 50 nM of FITC-uPAcyclin for 2 h at 4 °C. Cell surface-associated fluorescence, as percentage of the sample with […], is shown. Experiments were carried out in duplicate, and the data shown here are representative of three independent experiments. (B) 11 × 10^4 U87-MG cells/sample were pre-treated for 40 min at 37 °C with increasing concentrations of uPAcyclin or the indicated Ala peptides and then assayed in Boyden chambers for 5% FBS-dependent migration for 3 h at 37 °C. At the end of incubation, the filters were processed as described in the Methods section. For clarity here and in the following Figures, Ala-x indicates the peptide with substituted x-position. For both assays, the p-values are in the range of 0.005 ≤ p ≤ 0.001, apart from [Ala1]uPAcyclin in the migration assay with p ≤ 0.05.

U87-MG cells = format: cell-based, human; conditions: for inhibitory activity on cell migration, comparison (in words): U87-MG migration toward 5% FBS
Method: The migration and invasion assays were performed with Boyden chambers, according to De Vincenzo et al., using 11 × 10^4 U87-MG and U251-MG glioblastoma cells/sample pre-treated for 40 min at 37 °C with the indicated effectors and then allowed to migrate for 3 h or to invade for 5 h at 37 °C toward 5% FBS in DMEM/0.1% BSA. The migrated or invaded cells were reported as a percentage of basal random migration or invasion and analyzed as reported in the Statistical Analyses section. The migration and invasion experiments were conducted in triplicate.
as §1
Alterations of the amino acid sequence may affect the peptide structure and may, in turn, alter its function. To test for differences in the inhibitory activity of the Ala-substituted peptides, U87-MG glioblastoma cells were subjected to a directional migration assay in Boyden chambers towards FBS, in the presence or in the absence of the indicated concentrations of uPAcyclin or one of its Ala-scan derivatives (Figure 1B).

T1 sequence (P06756 31-889 limits assumed): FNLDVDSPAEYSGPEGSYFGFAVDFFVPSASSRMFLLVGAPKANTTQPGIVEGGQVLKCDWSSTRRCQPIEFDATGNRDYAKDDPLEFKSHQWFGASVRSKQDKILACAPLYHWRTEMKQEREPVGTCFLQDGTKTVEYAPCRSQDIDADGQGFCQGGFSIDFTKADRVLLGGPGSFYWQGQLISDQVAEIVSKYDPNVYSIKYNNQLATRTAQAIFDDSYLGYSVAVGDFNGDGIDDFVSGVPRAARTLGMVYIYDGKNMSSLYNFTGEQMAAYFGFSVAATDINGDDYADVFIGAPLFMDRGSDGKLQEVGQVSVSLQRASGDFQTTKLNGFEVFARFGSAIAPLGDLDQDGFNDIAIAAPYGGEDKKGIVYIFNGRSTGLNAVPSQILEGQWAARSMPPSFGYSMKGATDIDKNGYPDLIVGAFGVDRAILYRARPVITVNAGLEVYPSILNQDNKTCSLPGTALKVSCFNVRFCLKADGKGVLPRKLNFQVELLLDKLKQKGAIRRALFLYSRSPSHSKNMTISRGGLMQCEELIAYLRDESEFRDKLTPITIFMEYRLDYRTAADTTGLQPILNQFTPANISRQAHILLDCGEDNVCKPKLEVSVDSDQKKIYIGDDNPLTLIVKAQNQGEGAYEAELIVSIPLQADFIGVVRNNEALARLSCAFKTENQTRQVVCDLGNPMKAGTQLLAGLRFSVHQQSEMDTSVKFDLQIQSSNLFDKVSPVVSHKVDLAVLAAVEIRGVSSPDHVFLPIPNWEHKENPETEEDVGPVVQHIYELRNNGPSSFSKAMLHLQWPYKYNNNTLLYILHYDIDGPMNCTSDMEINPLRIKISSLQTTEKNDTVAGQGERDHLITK
T1 sequence (P06756 891-1048 limits assumed): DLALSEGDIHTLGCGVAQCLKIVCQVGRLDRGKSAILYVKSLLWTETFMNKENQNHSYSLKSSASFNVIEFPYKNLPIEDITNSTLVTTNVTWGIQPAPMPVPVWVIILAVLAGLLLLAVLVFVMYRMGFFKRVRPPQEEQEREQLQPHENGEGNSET

| SMILES | median overall survival (GBM) [months] | increase of binding affinity compared to uPAcyclin [1] | binding affinity compared to uPAcyclin (in words) [1] | IC50 of migration lower / inhibitory activity higher than parental uPAcyclin (U87-MG cells; U87-MG migration) | inhibitory activity on cell migration, comparison (in words) (U87-MG cells) | improvement in binding compared to parental uPAcyclin ([1]; GBM cells) [fold] |
| --- | --- | --- | --- | --- | --- | --- |
| Cn1nnc2c(C(N)=O)ncn2c1=O [Temozolomide] | 14.6 | – | – | – | – | – |
| CC(=O)N[C@@H](CCCCN)C(=O)N[C@@H](C)C(=O)N[C@H]1CCC(=O)NCCCC[C@@H](C(N)=O)NC(=O)[C@H](CC(C)C)NC(=O)[C@H](CCC(=O)O)NC(=O)[C@H](CCC(=O)O)NC(=O)[C@@H]2CCCN2C(=O)[C@@H]2CCCN2C(=O)[C@H](CO)NC1=O [[Ala^2]uPAcyclin] (Ac-KAESPPEELK-NH2; lactam 3-10) | – | about 1 log | definitely higher than that of the parental uPAcyclin | about 10 fold | strong inhibitors | – |
| CC(=O)N[C@@H](CCCCN)C(=O)N1CCC[C@H]1C(=O)N[C@H]1CCC(=O)NCCCC[C@@H](C(N)=O)NC(=O)[C@H](CC(C)C)NC(=O)[C@H](CCC(=O)O)NC(=O)[C@H](CCC(=O)O)NC(=O)[C@@H]2CCCN2C(=O)[C@H](C)NC(=O)[C@H](CO)NC1=O [[Ala^5]uPAcyclin] (Ac-KPESAPEELK-NH2; lactam 3-10) | – | about 1 log | definitely higher than that of the parental uPAcyclin | – | strong inhibitors | 10 |
